Measurements: US7425579B2, “Methods for inhibiting activity of polyamine transporters” (Universite Laval, priority 1998, dated 2008)
Read-outs that look alike come from different tables or passages of the source.

Key:
[1] = tested on: CHO-K1 cells; test: Reversal of DFMO-induced cytostasis by exogenous spermidine in CHO-K1 cells; format: cell-based, Chinese hamster; conditions: DFMO-treated CHO-K1 cells with extracellular spermidine; data not shown
Experimental: (§1) FIGS. 8A and 8B are graphs representing the time course of the effect of a compound used in a method according to a preferred embodiment of the invention on rescue of DFMO-induced cytostasis by exogenous spermidine. In particular, at time zero, T-47D (panel A) or CHO-K1 (panel B) were seeded at 1×10^4 or 5×10^3 cells/well, respectively, in medium containing 1 mM aminoguanidine, plus either 0.3 μM spermidine (Spd, ●), 2 mM DFMO (□), Spd+DFMO (▪), 50 μM (A) or 100 μM (B) BNSD-X (Δ), BNSD-X+Spd (▴), BNSD-X+DFMO (□), BNSD-X+Spd+DFMO (▾), or vehicle only (∘). At the indicated time, total DNA content/well was determined. Data are presented as the mean±SD for triplicate cultures from one representative experiment;
(§2) To determine the ability of polyamine transport antagonists to potentiate DFMO-induced inhibition of cell proliferation in the presence of exogenous polyamines, cells were grown for the indicated period in growth medium supplemented with 1 mM aminoguanidine, and either DFMO (1 to 5 mM), the indicated transport inhibitor (50 or 100 μM), or the combination thereof, as well as increasing concentrations of spermidine (0.1 to 300 μM). Fresh medium was added every other day, and cell mass was determined at various time points during the period of exponential growth, or at the end of the experimental period. For the latter experiments, the FBS supplement was replaced with dextran-coated charcoal-treated FBS (5%, v/v) plus 0.5 μg/ml insulin in the case of T-47D, ZR-75-1 and MCF-7 cells (U.S. Pat. No. 6,083,496).

[2] = tested on: mammalian polyamine carrier; test: Determination of polyamine uptake activity: inhibition of diamine and polyamine transport in T-47D cells; format: cell-based, human; conditions: for Ki: mean±SD
Experimental: The rate of diamine and polyamine transport was determined in T-47D and ZR-75-1 cells incubated in serum-free RPMI 1640 medium as previously described (U.S. Pat. No. 6,083,496; Covassin et al. (1999) Bioorg. Med. Chem. Lett. 9, 1709-1714), using 20 μM [^3H]putrescine (179 Ci/mol), 5 μM [^3H]spermidine (246 Ci/mol) and 3 μM [^14C]spermine (300-400 mCi/mol) respectively, as substrates for a 20-min assay period. Uptake activity was expressed per amount of DNA as fluorometrically determined using 3,5-diaminobenzoic acid (Simard et al. (1990) Endocrinology 126, 3223-3231). Kinetic parameters of polyamine transport inhibition for the transport antagonists were determined by Lineweaver-Burke analysis of uptake activity in the presence of 0.1 μM [^3H]putrescine, 0.03 μM [^3H]spermidine, and 0.01 μM [^14C]spermine plus increasing concentrations of nonradioactive substrate. For competitive inhibitors, Ki values were estimated by iterative curve fitting for sigmoidal equations describing transport rates in the presence of increasing concentrations of antagonist, using the Cheng-Prusoff equation for competitive inhibition (U.S. Pat. No. 6,083,496).
The ability of BSD and BNSD compounds to inhibit uptake of the main natural substrates of the mammalian polyamine carrier, namely putrescine, spermidine and spermine, was evaluated using T-47D human breast cancer cells (Table 1).
Data are presented as the mean±SD of at least two independent determinations of IC50 values, each based on triplicate determinations of uptake velocity at increasing inhibitor concentrations.
The potency of the polyamines and their xylylated dimers as competitive inhibitors of spermidine transport was evaluated in the T-47D human breast cancer cell line (Table 2).

[3] = tested on: T-47D cells; test: Reversal of DFMO-induced cytostasis by exogenous spermidine in T-47D cells; format: cell-based, human; conditions: T-47D cells with extracellular spermidine and DFMO
Experimental: FIGS. 6A, 6B, 6C and 6D are graph showing that antagonism of DFMO-induced cytostasis by exogenous spermidine depends on the polyamine and linker structure of the compounds used in a method according to a preferred embodiment of the invention. In particular, T-47D cells were grown for 8-9 d with the indicated concentrations of spermidine in medium containing 1 mM aminoguanidine, in the presence of DFMO (●), transport inhibitor (□), DFMO plus transport inhibitor (▪), or in the absence of either agent (∘), and total DNA content per culture was then determined. Panels A, B, C, and D describe the effect of BNSD-X, BSD-X, BNSD-3 and BSD-3, respectively. Data are presented as the mean±SD for triplicate cultures from one out of at least two identical experiments;
as §1, §2

[4] = tested on: T-47D cells; test: Effect of inhibitors on T-47D cell proliferation (DNA content); format: cell-based, human
Experimental: FIGS. 3A and 3B are graphs showing the effect compounds used in a method according preferred embodiment of the present invention, on cell proliferation. In particular, they relate to the effect of selected BSD and BNSD derivatives on T-47D cell proliferation. Cells were incubated for 9 d with the indicated concentrations of BSD-2 (∘), BNSD-4 (●), BSD-4 (□), BNSD-6 (▪), BSD-10 (Δ), BSD-4-ene (▴) and BSD-4-yne (▾) in medium containing 1 mM aminoguanidine, and total DNA content per culture was then determined. B, Effect of BNSD-X (N,N,N′,N′-tetrakis-(3-aminopropyl)-p-diaminoxylene) on cell proliferation in various mammalian cell lines. Jurkat (∘), LAN-1 (●), L1210 (□), T-47D (▪), ZR-75-1 (Δ) and MDA-MB-231 (▴) cells were grown to near confluency or saturation (for 4 to 11 d according to the cell line considered) with the indicated concentrations of BNSD-X in the presence of 1 mM aminoguanidine, and total DNA content per culture was then determined. Data are given as the mean±SD for triplicate cultures from one out of at least two identical experiments;
FIGS. 4A and 4B are graphs showing how compounds used in a method according to a preferred embodiment are differentially sensitive to degradation by BSAO (bovine serum amine oxidase). In particular, T-47D cells were incubated for 9 d with the indicated concentrations of BSD-X (∘), BNSD-X (●), BSD-3 (□) or BNSD-3 (▪) in the absence (A) or presence of 1 mM aminoguanidine (B), and total DNA content per culture was then determined. Data are presented as the mean±SD for triplicate cultures from one representative experiment;
The effect of transport inhibitors on cell proliferation was evaluated by determination of cell number (L1210, Jurkat) using electronic sizing with a Model ZM Coulter counter (Coulter Electronics, Hialeah, Fla.), or DNA content per culture (for all other cell lines) with the 3,5-diaminobenzoic acid assay. […] Cytotoxicity of the inhibitors was determined in the presence or absence of aminoguanidine, and was confirmed by a trypan blue exclusion assay.

[5] = tested on: CHO-K1, Jurkat, L1210, MDA-MB-231, ZR-75-1 and MCF-7 cells; test: Reversal of DFMO-induced cytostasis by exogenous spermidine in a variety of mammalian cell lines; format: cell-based; conditions: most cell lines; concentrations as low as
Experimental: FIGS. 5A, 5B, 5C, 5D, 5E and 5F are graphs representing that a compound used in a method according to a preferred embodiment antagonizes rescue of DFMO-induced cytostasis by exogenous spermidine. In particular, CHO-K1 (A), Jurkat (B), L1210 (C), MDA-MB-231 (D), ZR-75-1 (E) and MCF-7 cells (F) were grown to near confluency or saturation (for 4 to 11 d according to the cell line considered) with the indicated concentrations of spermidine in medium containing 1 mM aminoguanidine, in the presence of DFMO (●), BNSD-X (□), DFMO plus BNSD-X (▪), or in the absence of either agent (∘), and total DNA content per culture was then determined. The optimal concentration of either DFMO (1 to 5 mM) or BNSD-X (50 or 100 μM) was used for the each cell line as determined in pilot experiments. Data are presented as the mean±SD for triplicate cultures from one out of at least three identical experiments for each cell line;
as §2

[6] = T-47D breast cancer cells, read-out: Ki, inhibition of [3H]putrescine uptake
[7] = T-47D breast cancer cells, read-out: Ki, inhibition of [3H]spermidine uptake
[8] = T-47D breast cancer cells, read-out: Ki, inhibition of [14C]spermine uptake

Row | SMILES | effect on spermidine-mediated reversal of DFMO-induced growth inhibition, CHO-K1 [1] | Ki [2, 6] [nM] | Ki [2, 7] [nM] | Ki [2, 8] [nM] | times less potent than BSD-3 as a spermidine transport antagonist ([2]; T-47D cells) | effect on spermidine-mediated reversal of DFMO-induced growth inhibition, T-47D [3] | cytotoxicity in the absence of aminoguanidine [4] | spermidine concentration that completely counteracts DFMO-induced cytostasis [5] [µM] | Km ([2]; T-47D breast cancer cells, substrate itself, read-out: Km for [3H]spermidine uptake) [µM] | Km ([2]; T-47D cells, Lineweaver-Burke analysis, 0.01-300 μM substrate, read-out: Km for spermidine uptake (Table 2)) [µM]
1 | NCCCN(CCCN)CCCN(CCCN)CCCN [19a] | exhibited no activity | 1600 ± 400 | 8300 ± 800 | 6200 ± 1700 | about 5 times | exhibited no activity | considerably more cytotoxic than their spermidine-like homologs | – | – | –
2 | NCCCCN(CCCN)Cc1ccc(CN(CCCN)CCCCN)cc1 [28b] | afforded increased resistance to exogenous spermidine | 280 ± 20 | 2000 ± 200 | 2900 ± 600 | – | did not increase the range of spermidine concentrations able to reverse inhibition of cell proliferation by DFMO | – | – | – | –
3 | NCCCCNCCCN [Spermidine, reference compound] | – | – | – | – | – | – | – | 0.3 to 1 | 4.4 ± 0.9 | 4.4 ± 0.9
